{"source": "patent US10167262B2", "about": "“Herbicidal substituted 3-arylpyrazoles” (FMC CORPORATION, priority 2014, dated 2019)", "type_in_all_cases": "in vivo", "key": {"[1]": {"tested_on": "deadnettle (henbit deadnettle, Lamium amplexicaule)", "test": "Test C postemergence greenhouse test, plant response rating 0-100", "details": "for Plant response rating, Deadnettle: scale 0 to 100", "summary_of_the_method": "(§1)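 Potted in peat/vermiculite mix; postemergence application at 1–4 leaves (2–18 cm); greenhouse 13–15 d; visual score 0–100 relative to untreated plants; dash = no test result.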"}, "[2]": {"tested_on": "surinam grass (Brachiaria decumbens)", "test": "Test C postemergence greenhouse test, plant response rating 0-100", "details": "for Plant response rating, Surinam Grass: scale 0 to 100", "summary_of_the_method": "as §1"}, "[3]": {"tested_on": "cocklebur (common cocklebur, Xanthium strumarium)", "test": "Test C postemergence greenhouse test, plant response rating 0-100", "details": "for Plant response rating, Cocklebur: scale 0 to 100", "summary_of_the_method": "as §1"}, "[4]": {"tested_on": "green foxtail (Setaria viridis)", "test": "Test C postemergence greenhouse test, plant response rating 0-100", "details": "for Plant response rating, Foxtail, Green: scale 0 to 100", "summary_of_the_method": "as §1"}, "[5]": {"tested_on": "goosegrass (Eleusine indica)", "test": "Test C postemergence greenhouse test, plant response rating 0-100", "details": "for Plant response rating, Goosegrass: scale 0 to 100", "summary_of_the_method": "as §1"}, "[6]": {"tested_on": "bermudagrass (Cynodon dactylon)", "test": "Test C postemergence greenhouse test, plant response rating 0-100", "details": "for Plant response rating, Bermudagrass: scale 0 to 100", "summary_of_the_method": "as §1"}, "[7]": {"tested_on": "woolly cupgrass (Eriochloa villosa)", "test": "Test C postemergence greenhouse test, plant response rating 0-100", "details": "for Plant response rating, Cupgrass, Woolly: scale 0 to 100", "summary_of_the_method": "as §1"}, "[8]": {"tested_on": "canarygrass (Phalaris minor)", "test": "Test C postemergence greenhouse test, plant response rating 0-100", "details": "for Plant response rating, Canarygrass: scale 0 to 100", "summary_of_the_method": "as §1"}, "[9]": {"tested_on": "downy bromegrass (Bromus tectorum)", "test": "Test C postemergence greenhouse test, plant response rating 0-100", "details": "for Plant response rating, Bromegrass, Downy: scale 0 to 100", "summary_of_the_method": "as §1"}, "[10]": {"tested_on": "waterhemp_RES2, (ALS & HPPD resistant common waterhemp, Amaranthus rudis)", "test": "Test E postemergence greenhouse test, plant response rating 0-100", "details": "scale 0 to 100", "protocol": "At the same time, plants from these crop and weed species and also waterhemp_RES1, (ALS & Triazine resistant common waterhemp, Amaranthus rudis), and waterhemp_RES2, (ALS & HPPD resistant common waterhemp, Amaranthus rudis) were planted in pots containing Redi-Earth® planting medium (Scotts Company, 14111 Scottslawn Road, Marysville, Ohio 43041) comprising spaghnum peat moss, vermiculite, wetting agent and starter nutrients were treated with postemergence applications of test chemicals formulated in the same manner. Plants ranged in height from 2 to 18 cm for postemergence treatments (1- to 4-leaf stage).\nTreated plants and controls were maintained in a greenhouse for 14 to 21 days, after which time all species were compared to controls and visually evaluated. Plant response ratings, summarized in Table E, are based on a scale of 0 to 100 where 0 is no effect and 100 is complete control. A dash (-) response means no test result."}}}
{"smiles": "CCn1cc(C(=O)c2cccs2)c(-c2cc(Cl)cc(Cl)c2)n1", "note": "[Compound 18]", "values": [{"measurement": "Plant response rating (0 to 100), Deadnettle", "setting": "[1]; 62 g ai/ha", "result": 20}, {"measurement": "Plant response rating (0 to 100), Deadnettle", "setting": "[1]; 125 g ai/ha", "result": 40}, {"measurement": "Plant response rating, Deadnettle", "setting": "[1]; 250 g ai/ha", "result": 55}, {"measurement": "Plant response rating, Deadnettle", "setting": "[1]; 500 g ai/ha", "result": 60}, {"measurement": "Plant response rating (0 to 100), Surinam Grass", "setting": "[2]; 62 g ai/ha", "result": 5}, {"measurement": "Plant response rating (0 to 100), Surinam Grass", "setting": "[2]; 125 g ai/ha", "result": 5}, {"measurement": "Plant response rating, Surinam Grass", "setting": "[2]; 250 g ai/ha", "result": 10}, {"measurement": "Plant response rating, Surinam Grass", "setting": "[2]; 500 g ai/ha", "result": 10}, {"measurement": "Plant response rating (0 to 100), Cocklebur", "setting": "[3]; 62 g ai/ha", "result": 5}, {"measurement": "Plant response rating (0 to 100), Cocklebur", "setting": "[3]; 125 g ai/ha", "result": 5}, {"measurement": "Plant response rating, Cocklebur", "setting": "[3]; 250 g ai/ha", "result": 15}, {"measurement": "Plant response rating, Cocklebur", "setting": "[3]; 500 g ai/ha", "result": 20}, {"measurement": "Plant response rating (0 to 100), Foxtail, Green", "setting": "[4]; 62 g ai/ha", "result": 0}, {"measurement": "Plant response rating (0 to 100), Foxtail, Green", "setting": "[4]; 125 g ai/ha", "result": 0}, {"measurement": "Plant response rating, Foxtail, Green", "setting": "[4]; 250 g ai/ha", "result": 0}, {"measurement": "Plant response rating, Foxtail, Green", "setting": "[4]; 500 g ai/ha", "result": 0}, {"measurement": "Plant response rating (0 to 100), Goosegrass", "setting": "[5]; 62 g ai/ha", "result": 0}, {"measurement": "Plant response rating (0 to 100), Goosegrass", "setting": "[5]; 125 g ai/ha", "result": 0}, {"measurement": "Plant response rating, Goosegrass", "setting": "[5]; 250 g ai/ha", "result": 10}, {"measurement": "Plant response rating, Goosegrass", "setting": "[5]; 500 g ai/ha", "result": 15}, {"measurement": "Plant response rating (0 to 100), Bermudagrass", "setting": "[6]; 62 g ai/ha", "result": 0}, {"measurement": "Plant response rating, Bermudagrass", "setting": "[6]; 125 g ai/ha", "result": 0}, {"measurement": "Plant response rating, Bermudagrass", "setting": "[6]; 250 g ai/ha", "result": 0}, {"measurement": "Plant response rating, Bermudagrass", "setting": "[6]; 500 g ai/ha", "result": 5}, {"measurement": "Plant response rating (0 to 100), Cupgrass, Woolly", "setting": "[7]; 62 g ai/ha", "result": 5}, {"measurement": "Plant response rating (0 to 100), Cupgrass, Woolly", "setting": "[7]; 125 g ai/ha", "result": 10}, {"measurement": "Plant response rating, Cupgrass, Woolly", "setting": "[7]; 250 g ai/ha", "result": 15}, {"measurement": "Plant response rating, Cupgrass, Woolly", "setting": "[7]; 500 g ai/ha", "result": 20}, {"measurement": "Plant response rating (0 to 100), Canarygrass", "setting": "[8]; 62 g ai/ha", "result": 0}, {"measurement": "Plant response rating (0 to 100), Canarygrass", "setting": "[8]; 125 g ai/ha", "result": 0}, {"measurement": "Plant response rating, Canarygrass", "setting": "[8]; 250 g ai/ha", "result": 0}, {"measurement": "Plant response rating, Canarygrass", "setting": "[8]; 500 g ai/ha", "result": 5}, {"measurement": "Plant response rating (0 to 100), Bromegrass, Downy", "setting": "[9]; 62 g ai/ha", "result": 0}, {"measurement": "Plant response rating, Bromegrass, Downy", "setting": "[9]; 125 g ai/ha", "result": 0}, {"measurement": "Plant response rating, Bromegrass, Downy", "setting": "[9]; 250 g ai/ha", "result": 0}, {"measurement": "Plant response rating, Bromegrass, Downy", "setting": "[9]; 500 g ai/ha", "result": 0}, {"measurement": "Plant response rating, Waterhemp_RES2", "setting": "[10]; 31 g ai/ha", "result": 65}, {"measurement": "Plant response rating, Waterhemp_RES2", "setting": "[10]; 62 g ai/ha", "result": 80}, {"measurement": "Plant response rating, Waterhemp_RES2", "setting": "[10]; 125 g ai/ha", "result": 85}, {"measurement": "Plant response rating, Waterhemp_RES2", "setting": "[10]; 250 g ai/ha", "result": 90}, {"measurement": "Plant response rating, Waterhemp_RES2", "setting": "[10]; 500 g ai/ha", "result": 95}]}
{"smiles": "ON=C(c1ccccc1)c1c[nH]nc1-c1cc(Cl)cc(Cl)c1", "note": "[Compound 50]", "values": [{"measurement": "Plant response rating (0 to 100), Deadnettle", "setting": "[1]; 31 g ai/ha", "result": 0}, {"measurement": "Plant response rating (0 to 100), Deadnettle", "setting": "[1]; 62 g ai/ha", "result": 0}, {"measurement": "Plant response rating (0 to 100), Deadnettle", "setting": "[1]; 125 g ai/ha", "result": 0}, {"measurement": "Plant response rating, Deadnettle", "setting": "[1]; 250 g ai/ha", "result": 40}, {"measurement": "Plant response rating (0 to 100), Surinam Grass", "setting": "[2]; 62 g ai/ha", "result": 0}, {"measurement": "Plant response rating (0 to 100), Surinam Grass", "setting": "[2]; 125 g ai/ha", "result": 0}, {"measurement": "Plant response rating, Surinam Grass", "setting": "[2]; 250 g ai/ha", "result": 0}, {"measurement": "Plant response rating (0 to 100), Cocklebur", "setting": "[3]; 31 g ai/ha", "result": 5}, {"measurement": "Plant response rating (0 to 100), Cocklebur", "setting": "[3]; 62 g ai/ha", "result": 15}, {"measurement": "Plant response rating (0 to 100), Cocklebur", "setting": "[3]; 125 g ai/ha", "result": 55}, {"measurement": "Plant response rating, Cocklebur", "setting": "[3]; 250 g ai/ha", "result": 90}, {"measurement": "Plant response rating (0 to 100), Foxtail, Green", "setting": "[4]; 31 g ai/ha", "result": 0}, {"measurement": "Plant response rating (0 to 100), Foxtail, Green", "setting": "[4]; 62 g ai/ha", "result": 0}, {"measurement": "Plant response rating (0 to 100), Foxtail, Green", "setting": "[4]; 125 g ai/ha", "result": 0}, {"measurement": "Plant response rating, Foxtail, Green", "setting": "[4]; 250 g ai/ha", "result": 0}, {"measurement": "Plant response rating (0 to 100), Goosegrass", "setting": "[5]; 31 g ai/ha", "result": 0}, {"measurement": "Plant response rating (0 to 100), Goosegrass", "setting": "[5]; 62 g ai/ha", "result": 0}, {"measurement": "Plant response rating (0 to 100), Goosegrass", "setting": "[5]; 125 g ai/ha", "result": 0}, {"measurement": "Plant response rating, Goosegrass", "setting": "[5]; 250 g ai/ha", "result": 0}, {"measurement": "Plant response rating (0 to 100), Bermudagrass", "setting": "[6]; 31 g ai/ha", "result": 0}, {"measurement": "Plant response rating (0 to 100), Bermudagrass", "setting": "[6]; 62 g ai/ha", "result": 0}, {"measurement": "Plant response rating (0 to 100), Bermudagrass", "setting": "[6]; 125 g ai/ha", "result": 0}, {"measurement": "Plant response rating, Bermudagrass", "setting": "[6]; 250 g ai/ha", "result": 0}, {"measurement": "Plant response rating (0 to 100), Cupgrass, Woolly", "setting": "[7]; 31 g ai/ha", "result": 0}, {"measurement": "Plant response rating (0 to 100), Cupgrass, Woolly", "setting": "[7]; 62 g ai/ha", "result": 0}, {"measurement": "Plant response rating (0 to 100), Cupgrass, Woolly", "setting": "[7]; 125 g ai/ha", "result": 0}, {"measurement": "Plant response rating, Cupgrass, Woolly", "setting": "[7]; 250 g ai/ha", "result": 0}, {"measurement": "Plant response rating (0 to 100), Canarygrass", "setting": "[8]; 31 g ai/ha", "result": 0}, {"measurement": "Plant response rating (0 to 100), Canarygrass", "setting": "[8]; 62 g ai/ha", "result": 0}, {"measurement": "Plant response rating (0 to 100), Canarygrass", "setting": "[8]; 125 g ai/ha", "result": 0}, {"measurement": "Plant response rating, Canarygrass", "setting": "[8]; 250 g ai/ha", "result": 0}, {"measurement": "Plant response rating (0 to 100), Bromegrass, Downy", "setting": "[9]; 31 g ai/ha", "result": 0}, {"measurement": "Plant response rating (0 to 100), Bromegrass, Downy", "setting": "[9]; 62 g ai/ha", "result": 0}, {"measurement": "Plant response rating (0 to 100), Bromegrass, Downy", "setting": "[9]; 125 g ai/ha", "result": 0}, {"measurement": "Plant response rating, Bromegrass, Downy", "setting": "[9]; 250 g ai/ha", "result": 0}, {"measurement": "Plant response rating, Waterhemp_RES2", "setting": "[10]; 31 g ai/ha", "result": 75}, {"measurement": "Plant response rating, Waterhemp_RES2", "setting": "[10]; 125 g ai/ha", "result": 100}, {"measurement": "Plant response rating, Waterhemp_RES2", "setting": "[10]; 250 g ai/ha", "result": 100}, {"measurement": "Plant response rating, Waterhemp_RES2", "setting": "[10]; 500 g ai/ha", "result": 100}]}
